Results from US7049340B1, “Neuroprotective and retinoprotective ophthalmologic drugs” (priority 1999, dated 2006).
Values joined by “and” are separate entries in the source; they are usually repeats but may differ in a detail not shown here. Identical values can stand only once.

Experiments:
Assay type in all cases: in vivo, human
[1] = tested on: patients with central serous chorioretinopathy; assay: Clinical treatment of retinal epitheliopathy and central serous chorioretinopathy (CSCR); details: in a few days to a few weeks
Experimental: (§1) The invention will now be illustrated by the following description of clinical examples which, of course, are not limiting in nature. In these examples the active principle, in particular ramipril, was administered continuously in an oral form, in an amount of 1.25 mg per day.

[2] = tested on: severely myopic patients with degenerative chorioretinopathy; assay: Clinical treatment of degenerative chorio-retinopathy in severe myopia: corrected visual acuity
Experimental: as §1
By way of example, visual acuity changed respectively: from simple light perception (LP) to 1/20 for the monophtalmic eye; from 2/10 (RE) 1/10 (LE) to 5/10 (RE) and 5/10 (LE); from 1.5/10 to 3/10; from 1/20 (both eyes) to 2/10 (RE) and 1/10 (LE); from 1/10 (RE) and 1/10 (LE) to 6/10 (RE) and 3/10 (LE). Clearly, the term RE used here means “right eye” and the term LE used here means “left eye”.

[3] = tested on: patients with age-related macular degeneration; assay: Clinical treatment of age-related macular degeneration (ARMD): visual acuity
Experimental: as §1
By way of example, visual acuity changed respectively from 0.16 to 0.3; 0.2 to 0.5; from 0.05 to 0.2 (right eye) and 0.05 to 0.15 (left eye); from 0.2 to 0.4 (right eye) and from 0.5 to 0.8 (left eye); from 0.6 to 1; from 0.4 to 0.6 (right eye) and from 0.2 to 0.5 (left eye).

[4] = tested on: patients with retinitis pigmentosa; assay: Clinical treatment of retinitis pigmentosa: visual acuity, automated perimetry, electroretinogram; details: for visual acuity after treatment: 1.25 mg orally, two months; for Mean drop MD: normal −2..2; for Corr. Loss variance CLV: normal 0..4; for Loss variance LV: normal 0..6; for Mean sensitivity MS: sectorial retinitis pigmentosa
Experimental: as §1
FIGS. 5 and 6 reproduce the fields of vision of the left eye; FIGS. 7 and 8 reproduce the field of vision of the right eye as perceived by one of the treated patients who suffered from sectorial retinitis pigmentosa, respectively before treatment (FIGS. 5 and 7) and after treatment, two months later (FIGS. 6 and 8).
(§2) The grey scale provides an “image” of visual function, point by point, of different regions of the retina; the palest zones correspond to regions in which the visual functions are the least altered; the darkest zones correspond to those that have altered the most. […] A reduction in the darkest regions also indicates local visual recovery in regions that have become lighter.
(§3) The values that appear in the right hand portions of the figures correspond to the threshold values measured locally at set points in the retina. […] In contrast, the values that appear in the lower right hand portions of the figures correspond to local loss of vision in the zones concerned of the retina compared with the normal.
(§4) The Bebie curves also provide comparative images of the visual capacity of the subject under examination (lower curves) compared with the curves for normal or quasi-normal subjects (upper curves).
Three patients were treated with 1.25 mg of ramipril orally and their visual acuity improved in the space of two months: […]

[5] = tested on: patients with retinal venous occlusion; assay: Clinical treatment of retinal venous occlusions; details: for visual acuity after treatment: oedematous and ischemic type venous branch occlusion, two months
Experimental: as §1

[6] = tested on: patient with pseudovitelliform dystrophy; assay: Clinical treatment of adult pseudo-vitelliform dystrophy: visual acuity; details: for visual acuity after treatment: one patient, one month
Experimental: as §1
Ramipril was used in the following three disorders: retinitis pigmentosa; Stargardt's disease, fundus flavimaculatus; adult pseudo-vitelliform dystrophy.
One patient was tested. Acuity improved in one month from 1.6 to 2/10 in the right eye and from 2/10 to 3/10 in the left eye. The activity of the ramipril in these hereditary dystrophies is unique.

[7] = tested on: healthy subject; assay: General arterial pressure at doses that improve field of vision; details: healthy subject
Source text: Effective doses for producing effects in the ophtalmologic field are desirably lower than doses that would induce general arterial hypotension in a subject with normal pressure. Clearly, the doses that can be used can be higher in subjects with hypertension, although this is not necessary, since the desired effect is that obtained in the ophtalmologic field.

[8] = tested on: patients with glaucomatous neuropathy; assay: Clinical treatment of glaucomatous neuropathy: visual acuity, automated perimetry, ocular tension; details: for Mean drop MD: normal −2..2; for Corr. Loss variance CLV: normal 0..4; for Loss variance LV: normal 0..6; for visual acuity after treatment: most spectacular case
Experimental: as §1
FIGS. 1 and 2 reproduce the fields of vision of the left eye; FIGS. 3 and 4 reproduce the field of vision of the right eye as perceived by one of the treated patients who suffered from glaucomatous neuropathy, respectively before treatment (FIGS. 1 and 3) and after treatment, 10 days later (FIGS. 2 and 4).
as §2, §3, §4

SMILES: CCOC(=O)[C@H](CCc1ccccc1)N[C@@H](C)C(=O)N1[C@H](C(=O)O)C[C@@H]2CCC[C@@H]21 [ramipril]
- blister (retinal serous detachment) [1]: reduction in the blister
- visual acuity and central field of vision [1]: improvement in visual acuity and in the central field of vision
- visual acuity after treatment ([2]; case 1, monophtalmic eye, before simple light perception (LP)): 1/20
- visual acuity after treatment ([2]; case 2, LE, before 1/10): 5/10
- visual acuity after treatment ([2]; case 2, RE, before 2/10): 5/10
- visual acuity after treatment ([2]; case 3, before 1.5/10): 3/10
- visual acuity after treatment ([2]; case 4, LE, before 1/20): 1/10
- visual acuity after treatment ([2]; case 4, RE, before 1/20): 2/10
- visual acuity after treatment ([2]; case 5, LE, before 1/10): 3/10
- visual acuity after treatment ([2]; case 5, RE, before 1/10): 6/10
- corrected visual acuity ([2]; even in a low dose, always, despite extremely severe myopic choroidosis): improvement in corrected visual acuity
- visual acuity after treatment ([3]; case 1, before 0.16): 0.3
- visual acuity after treatment ([3]; case 2, before 0.2): 0.5
- visual acuity after treatment ([3]; case 3, left eye, before 0.05): 0.15
- visual acuity after treatment ([3]; case 3, right eye, before 0.05): 0.2
- visual acuity after treatment ([3]; case 4, left eye, before 0.5): 0.8
- visual acuity after treatment ([3]; case 4, right eye, before 0.2): 0.4
- visual acuity after treatment ([3]; case 5, before 0.6): 1
- visual acuity after treatment ([3]; case 6, left eye, before 0.2): 0.5
- visual acuity after treatment ([3]; case 6, right eye, before 0.4): 0.6
- visual acuity ([3]; majority of patients, with or without sub-retinal neovessels): improved visual acuity
- visual acuity after treatment ([4]; first patient, right eye, before doubtful light perception): 1/50
- visual function ([4]; retinitis pigmentosa, all cases): improvement in visual function
- visual acuity after treatment ([4]; second patient, monophthalmic, before 2/10): 5/10
- visual acuity after treatment ([4]; third patient (sectorial), left eye, before 1.6): 4/10
- visual acuity after treatment ([4]; third patient (sectorial), right eye, before 1.6): 6/10
- Mean drop MD ([4]; third patient, left eye after two months, Mean, before 10.3): 6.5 dB
- Corr. Loss variance CLV ([4]; third patient, left eye after two months, Mean, before 52.5): 48.0 dB^2
- Mean drop MD ([4]; third patient, left eye after two months, Phase 1, before 9.8): 6.2 dB
- Loss variance LV ([4]; third patient, left eye after two months, Phase 1, before 60.6): 51.8 dB
- Mean drop MD ([4]; third patient, left eye after two months, Phase 2, before 9.6): 7.0 dB
- Loss variance LV ([4]; third patient, left eye after two months, Phase 2, before 52.8): 63.9 dB
- Mean drop MD ([4]; third patient, right eye after two months, Mean, before 10.6): 8.8 dB
- Corr. Loss variance CLV ([4]; third patient, right eye after two months, Mean, before 66.0): 65.6 dB^2
- Mean drop MD ([4]; third patient, right eye after two months, Phase 1, before 10.2): 8.7 dB
- Loss variance LV ([4]; third patient, right eye after two months, Phase 1, before 70.4): 67.5 dB
- Mean drop MD ([4]; third patient, right eye after two months, Phase 2, before 11.5): 9.2 dB
- Loss variance LV ([4]; third patient, right eye after two months, Phase 2, before 86.9): 79.8 dB
- Mean sensitivity MS ([4]; third patient, left eye after two months, Mean, before 16.8): 19.9 and 20.9
- Mean sensitivity MS ([4]; third patient, left eye after two months, Phase 1, before 17.3): 21.2
- Mean sensitivity MS ([4]; third patient, left eye after two months, Phase 2, before 17.9): 20.8
- Mean sensitivity MS ([4]; third patient, right eye after two months, Mean, before 16.5): 18 and 18.3
- Mean sensitivity MS ([4]; third patient, right eye after two months, Phase 1, before 16.8): 18.4
- Mean sensitivity MS ([4]; third patient, right eye after two months, Phase 2, before 16.0): 18.2
- electroretinogram ([4]; third patient, especially in the red and in the left eye): substantially improved
- visual acuity after treatment ([5]; first patient, before 2/10): 8/10
- functional and angiographic outcome ([5]; majority of patients treated): improved both on the functional and on the angiographic level
- visual acuity after treatment ([5]; second patient, before 6/10): 10/10
- visual function ([6]; adult pseudo-vitelliform dystrophy, all cases): improvement in visual function
- visual acuity after treatment ([6]; left eye, before 2/10): 3/10
- visual acuity after treatment ([6]; right eye, before 1.6): 2/10
- effect on arterial pressure of doses that improve field of vision [7]: do not cause arterial hypertension
- scotomas ([8]; automated perimetry): absolute scotomas became relative
- reduction of loss in mean sensitivity ([8]; automated perimetry, on average): 30%
- ocular tension ([8]; irregular amount): Significant reduction
- Mean drop MD ([8]; left eye after treatment (10 days), Mean, before 9.9): 6.2 dB
- Corr. Loss variance CLV ([8]; left eye after treatment (10 days), Mean, before 22.4): 13.1 dB^2
- Mean sensitivity MS ([8]; left eye after treatment (10 days), Mean, before treatment 16.5): 20.2
- Mean drop MD ([8]; left eye after treatment (10 days), Phase 1, before 9.5): 5.7 dB
- Loss variance LV ([8]; left eye after treatment (10 days), Phase 1, before 26.8): 16.8 dB
- Mean sensitivity MS ([8]; left eye after treatment (10 days), Phase 1, before treatment 16.9): 20.0
- Mean drop MD ([8]; left eye after treatment (10 days), Phase 2, before 9.4): 6.8 dB
- Loss variance LV ([8]; left eye after treatment (10 days), Phase 2, before 29.3): 26.5 dB
- Mean sensitivity MS ([8]; left eye after treatment (10 days), Phase 2, before treatment 17.3): 20.0
- visual acuity after treatment ([8]; LE, before 3/10): 10/10
- visual acuity after treatment ([8]; RE, before 6/10): 8/10
- Mean drop MD ([8]; right eye after treatment (10 days), Mean, before 9.5): 4.8 dB
- Corr. Loss variance CLV ([8]; right eye after treatment (10 days), Mean, before 21.8): 13.1 dB^2
- Mean sensitivity MS ([8]; right eye after treatment (10 days), Mean, before treatment 16.9): 21.6
- Mean drop MD ([8]; right eye after treatment (10 days), Phase 1, before 9.0): 4.1 dB
- Loss variance LV ([8]; right eye after treatment (10 days), Phase 1, before 28.6): 17.2 dB
- Mean sensitivity MS ([8]; right eye after treatment (10 days), Phase 1, before treatment 17.4): 22.2
- Mean drop MD ([8]; right eye after treatment (10 days), Phase 2, before 9.3): 4.7 dB
- Loss variance LV ([8]; right eye after treatment (10 days), Phase 2, before 21.0): 10.4 dB
- Mean sensitivity MS ([8]; right eye after treatment (10 days), Phase 2, before treatment 17.4): 21.9
